The results in this text go back to patent US20060165642A1, “Hair treatment compositions” (priority 2002, published 2006).

The structures appear in SMILES notation.

A short description of the assay: cuticle abrasion test. The conditions noted are these: for performance in cuticle abrasion test versus comparative Examples: base shampoo containing 0.03M of the compound; for % recovery: freeze-dried cuticle abraded from 4 g hair washed twice with base shampoo containing 0.03M of the compound, lower is better. As to the method: The compositions were tested in a cuticle abrasion test. Root end hair (as received from the supplier) was pre-cleaned by washing for 1 minute in Composition I followed by copious rinsing in double deionised water. The hair was left to dry naturally over 24 hrs.
For each test, 4 g of hair was washed in 0.4 g of the test composition for 30 seconds, rinsed for 30 seconds, and the washing/rinsing cycle repeated. The hair was left to dry naturally overnight.
The hair was cut into 1 cm lengths, placed in a blender bucket and 200 ml of double de-ionised water was added. The blender was placed on full power for 1 minute. The liquor was decanted off and transferred to a 50 ml centrifuge tube and centrifuged for 10 minutes at 4,300 RPM. The resulting clear liquor was decanted off leaving the cuticle sediment at the bottom of the tube.
The cuticle was transferred from the tube into a beaker with 3×5 ml washes and passed through a series of sieves (425 and 53 microns). The sieves were washed with a further 2×10 ml of water to ensure complete recovery of the cuticle. The sample was made up to 50 ml in a centrifuge tube, centrifuged for 15 minutes and the liquor decanted off. The cuticle was transferred with double deionised water (2×10 ml washes) to a beaker and freeze-dried.
The freeze-dried cuticle was weighed back to determine percentage recovery.

For the molecule `CC(C)(C)CCO` [Compound 1, 3,3-dimethylbutan-1-ol], the “performance in cuticle abrasion test versus comparative Examples” value was “perform better than comparative Examples A and B”; the “% recovery” value is reported as 0.31%.

In the case of `CC(C)(C)C(O)CO` (centres unmarked) [Compound 2, 3,3-dimethyl-1,2-butanediol], the “performance in cuticle abrasion test versus comparative Examples” value is “perform better than comparative Examples A and B”; the “% recovery” value was 0.27%.

In the case of `CC(O)CC(C)(C)O` (centres unmarked) [Compound B, 2-methyl-2,4 pentanediol, reference compound], the “% recovery” value is listed as 0.50%.
